# Results from PubChem BioAssay (NCI).
#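 Abbreviation: GI50, concentration required for 50% inhibition of growth. TGI: total growth inhibition.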
# Assays:
# Assay in all cases: inhibition of tumour cell growth, NCI panel, 384-well format
# [1] = test system: SF-268 CNS
# [2] = test system: UACC-62 melanoma
# [3] = test system: HCC-2998 colon
# [4] = test system: OVCAR-3 ovarian
# [5] = test system: NCI-H226 lung
# [6] = test system: NCI-H322M lung
# [7] = test system: M14 melanoma
# [8] = test system: UO-31 renal
# [9] = test system: RPMI-8226 leukemia
# [10] = test system: MDA-MB-468 breast
# [11] = test system: RXF 393 renal
# [12] = test system: A549 NSCLC
# [13] = test system: OVCAR-4 ovarian
compound,measurement,setting,value
Cc1ccc(S(=O)(=O)Cc2nc(-c3ccc(C(=O)NCc4cccnc4)cc3)oc2C)cc1,GI50,[1],< 10 nM
same,TGI,[1],12.9 nM
same,GI50,[2],16.5 nM
same,TGI,[2],34.5 nM
same,GI50,[3],< 10 nM
same,TGI,[3],< 10 nM
same,GI50,[4],< 10 nM
same,TGI,[4],< 10 nM
same,GI50,[5],119 nM
same,TGI,[5],602 nM
same,GI50,[6],< 10 nM
same,TGI,[6],< 10 nM
same,GI50,[7],< 10 nM
same,TGI,[7],16.9 nM
same,GI50,[8],< 10 nM
same,TGI,[8],< 10 nM
same,GI50,[9],< 10 nM
same,TGI,[9],< 10 nM
same,GI50,[10],11.8 nM
same,TGI,[10],26.1 nM
same,GI50,[11],16.9 nM
same,TGI,[11],33.4 nM
same,GI50,[12],19.4 nM
same,TGI,[12],41.9 nM
same,GI50,[13],19.3 nM
same,TGI,[13],39.6 nM
